Assay results as given in ChEMBL document CHEMBL1151433, “National and regional assessment of antimicrobial resistance among community-acquired respiratory tract pathogens identified in a 2005-2006 U.S. Faropenem surveillance study” (2007).
Converted amounts (≈) assume the structure as drawn.

Legend:
Streptococcus pneumoniae [1] = experiment: Antibacterial activity against penicillin-resistant Streptococcus pneumoniae ATCC 49619 isolated from respiratory tract infected patients after 20 to 24 hrs by broth microdilution method; format: functional
Streptococcus pneumoniae [2] = experiment: Antibacterial activity against Streptococcus pneumoniae ATCC 49619 isolated from respiratory tract infected patients assessed as susceptible isolates after 20 to 24 hrs by broth microdilution method; format: functional
Moraxella catarrhalis = experiment: Antibacterial activity against Moraxella catarrhalis isolated from respiratory tract infected patients after 20 to 24 hrs by broth microdilution method; format: functional
Streptococcus pneumoniae [3] = experiment: Antibacterial activity against penicillin-intermediate Streptococcus pneumoniae ATCC 49619 isolated from respiratory tract infected patients after 20 to 24 hrs by broth microdilution method; format: functional
Haemophilus influenzae [4] = experiment: Antibacterial activity against beta lactamase-negative Haemophilus influenzae […] isolated from respiratory tract infected patients assessed as susceptible isolates after 20 to 24 hrs by broth microdilution method; format: functional
Haemophilus influenzae [5] = experiment: Antibacterial activity against beta lactamase-negative Haemophilus influenzae […] isolated from respiratory tract infected patients after 20 to 24 hrs by broth microdilution method; format: functional; settings: ATCC 49247
Streptococcus pneumoniae [6] = experiment: Antibacterial activity against penicillin-intermediate Streptococcus pneumoniae ATCC 49619 isolated from respiratory tract infected patients assessed as resistant isolates after 20 to 24 hrs by broth microdilution method; format: functional
Haemophilus influenzae [7] = experiment: Antibacterial activity against Haemophilus influenzae […] isolated from respiratory tract infected patients after 20 to 24 hrs by broth microdilution method; format: functional; settings: ATCC 49247
Streptococcus pneumoniae [8] = experiment: Antibacterial activity against penicillin-resistant Streptococcus pneumoniae ATCC 49619 isolated from respiratory tract infected patients assessed as resistant isolates after 20 to 24 hrs by broth microdilution method; format: functional
Streptococcus pneumoniae [9] = experiment: Antibacterial activity against Streptococcus pneumoniae ATCC 49619 isolated from respiratory tract infected patients after 20 to 24 hrs by broth microdilution method; format: functional
Streptococcus pneumoniae [10] = experiment: Antibacterial activity against penicillin-intermediate Streptococcus pneumoniae ATCC 49619 isolated from respiratory tract infected patients assessed as susceptible isolates after 20 to 24 hrs by broth microdilution method; format: functional
Haemophilus influenzae [11] = experiment: Antibacterial activity against beta lactamase-positive Haemophilus influenzae […] isolated from respiratory tract infected patients assessed as susceptible isolates after 20 to 24 hrs by broth microdilution method; format: functional, ATCC 49247
Streptococcus pneumoniae [12] = experiment: Antibacterial activity against penicillin-susceptible Streptococcus pneumoniae ATCC 49619 isolated from respiratory tract infected patients assessed as susceptible isolates after 20 to 24 hrs by broth microdilution method; format: functional
Streptococcus pneumoniae [13] = experiment: Antibacterial activity against penicillin-susceptible Streptococcus pneumoniae ATCC 49619 isolated from respiratory tract infected patients assessed as resistant isolates after 20 to 24 hrs by broth microdilution method; format: functional
Streptococcus pneumoniae [14] = experiment: Antibacterial activity against penicillin-susceptible Streptococcus pneumoniae ATCC 49619 isolated from respiratory tract infected patients after 20 to 24 hrs by broth microdilution method; format: functional
Haemophilus influenzae [15] = experiment: Antibacterial activity against beta lactamase-positive Haemophilus influenzae […] isolated from respiratory tract infected patients after 20 to 24 hrs by broth microdilution method; format: functional; settings: ATCC 49247
Streptococcus pneumoniae [16] = experiment: Antibacterial activity against Streptococcus pneumoniae ATCC 49619 isolated from respiratory tract infected patients assessed as resistant isolates after 20 to 24 hrs by broth microdilution method; format: functional
Haemophilus influenzae [17] = experiment: Antibacterial activity against Haemophilus influenzae […] isolated from respiratory tract infected patients assessed as susceptible isolates after 20 to 24 hrs by broth microdilution method; format: functional, ATCC 49247
Streptococcus pneumoniae [18] = experiment: Antibacterial activity against penicillin-resistant Streptococcus pneumoniae ATCC 49619 isolated from respiratory tract infected patients assessed as susceptible isolates after 20 to 24 hrs by broth microdilution method; format: functional
Streptococcus pneumoniae [19] = experiment: Antibacterial activity against Streptococcus pneumoniae ATCC 49619 isolated from respiratory tract infected patients with 15 to 64 years of age after 20 to 24 hrs by broth microdilution method; format: functional
Streptococcus pneumoniae [20] = experiment: Antibacterial activity against Streptococcus pneumoniae ATCC 49619 isolated from respiratory tract infected inpatients after 20 to 24 hrs by broth microdilution method; format: functional
Streptococcus pneumoniae [21] = experiment: Antibacterial activity against Streptococcus pneumoniae ATCC 49619 isolated from respiratory tract infected patients more than 65 years of age after 20 to 24 hrs by broth microdilution method; format: functional
Streptococcus pneumoniae [22] = experiment: Antibacterial activity against Streptococcus pneumoniae ATCC 49619 isolated from respiratory tract infected patients with 6 to 14 years of age after 20 to 24 hrs by broth microdilution method; format: functional
Streptococcus pneumoniae [23] = experiment: Antibacterial activity against Streptococcus pneumoniae ATCC 49619 isolated from respiratory tract infected outpatients after 20 to 24 hrs by broth microdilution method; format: functional
Streptococcus pneumoniae [24] = experiment: Antibacterial activity against Streptococcus pneumoniae ATCC 49619 isolated from respiratory tract infected patients within 2 years of age after 20 to 24 hrs by broth microdilution method; format: functional
Streptococcus pneumoniae [25] = experiment: Antibacterial activity against Streptococcus pneumoniae ATCC 49619 isolated from respiratory tract infected female patients after 20 to 24 hrs by broth microdilution method; format: functional
Streptococcus pneumoniae [26] = experiment: Antibacterial activity against Streptococcus pneumoniae ATCC 49619 isolated from respiratory tract infected patients with 3 to 5 years of age after 20 to 24 hrs by broth microdilution method; format: functional
Streptococcus pneumoniae [27] = experiment: Antibacterial activity against Streptococcus pneumoniae ATCC 49619 isolated from respiratory tract infected male patients after 20 to 24 hrs by broth microdilution method; format: functional

With `C[C@@H](O)[C@H]1C(=O)N2C(C(=O)O)=C(S[C@@H]3CN[C@H](C(=O)N(C)C)C3)[C@H](C)[C@H]12` [MEROPENEM] the MIC50 (Streptococcus pneumoniae [1]) was 1 µg/mL (≈ 2.61 µM), the MIC90 (Streptococcus pneumoniae [1]) was 1 µg/mL (≈ 2.61 µM) and the Activity (Streptococcus pneumoniae [2]) was 83.2%. The MIC50 (Moraxella catarrhalis) was ≤ 0.004 µg/mL, the MIC90 (Moraxella catarrhalis) was 0.008 µg/mL (≈ 0.0209 µM) and the MIC50 (Streptococcus pneumoniae [3]) was 0.06 µg/mL (≈ 0.156 µM). It also gave an MIC90 (Streptococcus pneumoniae [3]) of 0.25 µg/mL (≈ 0.652 µM), an Activity (Haemophilus influenzae [4]) of 99.6% and an MIC50 (Haemophilus influenzae [5]) of 0.06 µg/mL (≈ 0.156 µM). It also gave an MIC90 (Haemophilus influenzae [5]) of 0.12 µg/mL (≈ 0.313 µM), an Activity (Streptococcus pneumoniae [6]) of 0% and an MIC50 (Haemophilus influenzae [7]) of 0.03 µg/mL (≈ 0.0782 µM). The MIC90 (Haemophilus influenzae [7]) was 0.12 µg/mL (≈ 0.313 µM), the Activity (Streptococcus pneumoniae [8]) was 59.5% and the MIC50 (Streptococcus pneumoniae [9]) was 0.015 µg/mL (≈ 0.0391 µM). It also gave an MIC90 (Streptococcus pneumoniae [9]) of 0.5 µg/mL (≈ 1.3 µM), an Activity (Streptococcus pneumoniae [10]) of 93.2% and an Activity (Haemophilus influenzae [11]) of 100%. For the same compound, the Activity (Streptococcus pneumoniae [12]) was 100%, the Activity (Streptococcus pneumoniae [13]) was 0% and the MIC50 (Streptococcus pneumoniae [14]) was 0.015 µg/mL (≈ 0.0391 µM). For the same compound, the MIC90 (Streptococcus pneumoniae [14]) was 0.015 µg/mL (≈ 0.0391 µM), the MIC50 (Haemophilus influenzae [15]) was 0.03 µg/mL (≈ 0.0782 µM) and the MIC90 (Haemophilus influenzae [15]) was 0.06 µg/mL (≈ 0.156 µM). The Activity (Streptococcus pneumoniae [16]) was 9.5%, the Activity (Haemophilus influenzae [17]) was 99.7% and the Activity (Streptococcus pneumoniae [18]) was 4.5%.

`C[C@@H](O)[C@H]1C(=O)N2C(C(=O)O)=C([C@H]3CCCO3)S[C@H]12` [FAROPENEM] was tested, and the MIC90 (Streptococcus pneumoniae [19]) was 0.5 µg/mL (≈ 1.75 µM), the MIC50 (Streptococcus pneumoniae [1]) was 1 µg/mL (≈ 3.5 µM) and the MIC90 (Streptococcus pneumoniae [1]) was 2 µg/mL (≈ 7.01 µM). It also gave an MIC90 (Streptococcus pneumoniae [20]) of 0.5 µg/mL (≈ 1.75 µM), an MIC50 (Moraxella catarrhalis) of 0.25 µg/mL (≈ 0.876 µM) and an MIC90 (Moraxella catarrhalis) of 0.5 µg/mL (≈ 1.75 µM). It also gave an MIC50 (Streptococcus pneumoniae [3]) of 0.06 µg/mL (≈ 0.21 µM), an MIC90 (Streptococcus pneumoniae [3]) of 0.25 µg/mL (≈ 0.876 µM) and an MIC90 (Streptococcus pneumoniae [21]) of 0.5 µg/mL (≈ 1.75 µM). It also gave an MIC90 (Streptococcus pneumoniae [22]) of 0.5 µg/mL (≈ 1.75 µM), an MIC90 (Streptococcus pneumoniae [23]) of 0.5 µg/mL (≈ 1.75 µM) and an MIC90 (Streptococcus pneumoniae [24]) of 1 µg/mL (≈ 3.5 µM). For the same compound, the MIC50 (Streptococcus pneumoniae [9]) was 0.015 µg/mL (≈ 0.0526 µM), the MIC90 (Streptococcus pneumoniae [9]) was 0.5 µg/mL (≈ 1.75 µM) and the MIC90 (Streptococcus pneumoniae [25]) was 0.5 µg/mL (≈ 1.75 µM). For the same compound, the MIC50 (Streptococcus pneumoniae [14]) was 0.008 µg/mL (≈ 0.028 µM), the MIC90 (Streptococcus pneumoniae [14]) was 0.015 µg/mL (≈ 0.0526 µM) and the MIC90 (Streptococcus pneumoniae [26]) was 1 µg/mL (≈ 3.5 µM). The MIC90 (Streptococcus pneumoniae [27]) was 0.5 µg/mL (≈ 1.75 µM).
